{"source": "patent US20110028422A1", "about": "(priority 2007, published 2011)", "key": {"CLL lymphocytes": {"system": "CLL lymphocytes", "test": "MTT cytotoxic assay, CLB sensitization (Example I)", "type": "cell-based, human", "settings": "MTT 72 h", "method": "Aliquots containing 1×10^6 cells/ml are sent for T-lymphocyte analysis. The percentage of contaminating T lymphocytes is determined using fluorescence-activated cell sorting analysis with CD3 antibody. […] A-2) Plating Efficiency and Dosing. […] Only dose responses with linear plating efficiencies are analyzed. […] A-3) Cytotoxic Assay. […] The percentage of surviving cells after treatment respect to vehicle treated cells (control) is calculated as (OD treated cells/OD untreated cells)×100. […] A-4) Statistical Analysis Differences between mean values is assessed by two tailed t-test. Correlation and linear regression analysis are performed using the EXCEL Statistical Tool Package."}, "H2AX": {"system": "H2AX", "test": "CLB-induced H2AX", "type": "cell-based"}, "NFκB pathway": {"system": "NFκB pathway", "test": "NFκB pathway regulation", "type": "cell-based", "settings": "c-abl inhibition; B-CLL lymphocytes"}}, "data": [{"smiles": "Cc1cn(-c2cc(NC(=O)c3ccc(C)c(Nc4nccc(-c5cccnc5)n4)c3)cc(C(F)(F)F)c2)cn1", "note": "[Nilotinib, 4-methyl-3-[[4-(3-pyridinyl)-2-pyrimidinyl]amino]-N-[5-(4-methyl-1H-imidazol-1-yl)-3-(trifluoromethyl)phenyl]benzamide]", "values": [{"measurement": "samples in which potency in sensitizing CLL lymphocytes towards chlorambucil was greater than imatinib", "setting": "CLL lymphocytes", "result": "16/19"}, {"measurement": "CLB-induced □ H2AX", "setting": "H2AX", "result": "increased"}, {"measurement": "NFκB pathway", "setting": "NFκB pathway", "result": "down regulation"}]}]}
